Results as given in paper PMC5907308, “21st Brazilian Diabetes Society Congress” (Diabetology & Metabolic Syndrome, 2018).
Like-named read-outs stand apart in the source and are kept apart here.

Tests used:
[1] = system: OVX female Swiss mice; type: in vivo, mouse
Protocol: (§1) Methods: Female Swiss mice with 80–100 days of life were OVX, after 2 weeks females in anestrous were distributed in the control groups (CTL): fed with normolipid diet and water containing 0.01% ethanol (vehicle); BPA control (CBPA): normolipid diet and water containing 0.01% ethanol and 1 μg/mL BPA; HFD: diet containing 36 g% fat and vehicle; and (HBPA): HFD and BPA. After 3 months, glucose tolerance test (GTT) and islet isolation for insulin secretion were performed (CEUA UFRJ-Macaé: MAC035 approval). Data were analyzed for the distribution of normality (Shapiro–Wilk), followed by analysis of variances: parametric (ANOVA followed by Newman–Keuls) or non-parametric (Kruskal–Wallis followed by Dunns; P < 0.05).

[2] = system: islets isolated from OVX female Swiss mice; experiment: Glucose-stimulated insulin secretion of isolated islets; type: cell-based, mouse; conditions: 2.8 mM glucose; HFD islets 1.2 ± 0.14
Protocol: as §1

[3] = system: diabetic pregnant women; type: in vivo, human; conditions: 2009-2016, medical records
Protocol: Methods: We analyzed the medical records of the diabetic pregnant women who were attended at the Endocrinology Clinic of Hospital do Servidor Público Municipal between 2009 and 2016. The incidence of fetal macrosomia, prematurity, respiratory distress, hospitalization in intensive care unit and abortion were analyzed and correlated to the glycemic control. Good glycemic control was defined by the presence of at least 80% of capillary blood glucose within the following range: pre-prandial < 90 mg/dL, 1 h postprandial < 140 mg/dL, 2 h postprandial < 120 mg/dL

[4] = system: patient with glucagonoma; experiment: Case report: glucagonoma; type: in vivo, human; conditions: zinc vitamin supplement and Octreotide
Excerpt: Case report: patient four, hospitalized in 2015 for investigation of cholestatic syndrome associated with pancreatic mass of 51x48 mm evidenced on abdominal tomography (15/05/03). The patient underwent corpocaudal pancreatectomy and total splenectomy, with free surgical margins, but with angiolymphatic invasion. […] The patient received chemotherapy with gemcitabine which was replaced by Folfirinox. However, after 1 year without medical follow-up, they returned presenting weight loss, cutaneous disseminated lesions in the upper and lower limbs (Fig. 1), trunk and genitalia, angular cheilitis, macroglossia, deep venous thrombosis of the lower limbs and glycemia above 400 mg/dl. Figure 1: Cutaneous disseminated lesions It was used several antimicrobial regimens to treat skin lesions, unsuccessful, and performed biopsies of the skin, that diagnosis psoriasiform spongious dermatitis. The case was referred to the endocrinology departament and we did the diagnosis of glucagonoma, based on the symptoms and skin lesions, confirmed by pancreatic glucagon levels of 722 pg/ml (reference value < 208 pg/ml). […] We considered diagnosis hypothesis of adrenal insufficiency and after offered hydrocortisone, it was observed improvement in their condition in 24 h.

[5] = system: Normoglycemic adult Wistar rats; conditions: for TOTG glycemia, 120 min: CONT 93.7 ± 4.1
Protocol: The side effects are primarily determined by dosage and time of use. The objective was to evaluate the effects of increasing doses of PRD on the action of endogenous insulin in Wistar rats. Normoglycemic adult rats weighing 450–510 g were divided into 5 groups, differentiated by their daily treatment (18 days) orally, as the PRD dose used [CONT, PRD1 (0.625 mg/kg), PDR2 (1.250 mg/kg), PRD3 (2.500 mg/kg) and PRD4 ([…])]. Rats received water and food ad libitum, and on 0, 8 and 16 days of treatment the fasting glycemia was measured. On the 17th day, the oral glucose tolerance test (TOTG) was performed, collecting blood for glucose levels at fasting times (− 1 min) and 30, 60 and 120 min after administration of glucose solution. […] The data were statistically analyzed with significance of 5%.

[6] = system: patients submitted to liver transplantation; type: in vivo, human; conditions: Tacrolimus 95% CI 1.2–32.5, p = 0.029; PDN 95% CI 2.4–21, 8, p < 0.001
Excerpt: A total of 152 patients were included. […] Comparisons were done with Chi square tests and analysis of independent risk factors with multivariate logistic regression.

[7] = system: male Wistar rats; type: in vivo, rat
Protocol: In addition, experimental studies of effects of different doses are important in assessing the safety of a drug. The objective was to evaluate the lipid biomarkers in rats treated with several doses of prednisone. […] The treatment was daily for of 21 days, with weekly measures of body weight, food consumption and calories ingested on days 0, 8 and 16 of treatment. On the last day, the caloric gain was evaluated and then the rats were anesthetized and killed by decapitation to collect the whole blood for serum biochemical analyzes. All data were statistically evaluated with significance of 5%.

[8] = system: male rats with mild diabetes (neonatal streptozotocin); type: in vivo, rat
Protocol: Background: The prednisone (PRD) is a glucocorticoid that may lead to the development of temporary hyperglycemia. […] The objective was to evaluate the effects of PRD in mild diabetic rats by biochemical and immunological biomarkers. […] The rats were separated into 4 groups: control (C), treated control C + PRD (oral treatment of 1.25 mg/kg/day PRD); diabetic DM (mild diabetes) and treated diabetic DM + PRD (mild diabetes, treatment with same dose as C + PRD group). Untreated groups received vehicle, adjusted volume according to body weight. The treatment daily for 21 days and it were weekly measured the body weight, food and water intake, and glycemia. In the 3rd week of treatment, the oral glucose tolerance test (OGTT) and insulin tolerance test (TTI) were performed, area under the glycemic curve (ASC) values were calculated. In the 21st day, the rats were killed and the blood was collected for serum biochemical, leukogram and immunoglobulin G determinations. All data was statistically evaluated with 5% significance.

[9] = system: patients with long-standing T1DM; experiment: Mixed-meal tolerance test + oral 5 mg glibenclamide, ultrasensitive C-peptide; type: in vivo, human; conditions: 4 of 6 T1DM patients
Protocol: Fasting blood was taken for measurement of C-peptide (ELISA; Mercodia® (Uppsala, Sweden; cat.Nº10-1141-01). Thirty one patients (24,5%) had C-peptide > 10 pmol/L or 0.03 ng/ml. Six patients were randomly recruited to undergo a mixed-meal tolerance test + oral 5 mg glibenclamide.

[10] = system: T2D pts aged ≥ 65 years on basal insulin; experiment: DELIVER 3 retrospective real-world study; type: in vivo, human
Protocol: Older patients (pts) with T2D are disproportionately impacted by treatment-related hypoglycemia and its adverse consequences. […] Pts had ≥ 12 months (mo) of baseline data and ≥ 6 mo of follow-up data. The effect of cohort on A1C reduction, hypoglycemia incidence/event rate, and achievement of A1C goal at 6 mo were assessed by generalized linear models or logistic regression models with adjustment for baseline characteristics. […] This is an ENCORE abstract previously presented at ADA2017. Funding and editorial support provided by Sanofi.

[11] = system: patients with T2D; experiment: Network meta-analysis Gla-300 vs IDeg (inputs of the cost-effectiveness model); type: in vivo, human; conditions: estimated by network meta-analysis
Excerpt: Methods: This modelling analysis simulated a cohort representing patients in the EDITION 2 and 3 trials using the IMS Core Diabetes Model with a time horizon of 50 years (lifetime) for 1,000,000 patients starting at 62 years old. […] The treatment cost was $1,561 per SHE and $13.65 per NSHE (2015 $). Utilities to estimate quality-adjusted life years (QALYs) for multiple comorbidities were applied using the minimum utility approach. A disutility of -0.0118 was applied for SHE, and method of diminishing marginal disutility for NSHE.

[12] = system: T2DM pts uncontrolled on BOT with other BI; experiment: TOP-2 prospective observational study, 6 month interim analysis; type: in vivo, human
Protocol: Adult pts currently on a BOT with an indication for changing their insulin therapy due to non-achievement of glycemic targets (A1c 7.5–10.0%) are enrolled. Primary endpoint (EP) is the rate of pts achieving a fasting plasma glucose (FPG) ≤ 110 mg/dL after 6 and 12 months, respectively. Secondary EPs include change in A1c, FPG, body weight (BW) and insulin dose, hypoglycemia incidence and safety. Here we report on an interim analysis including all German pts, for whom 6 month results were available 15 months after study start (n = 661). […] Less pts experienced nocturnal hypoglycemia (0.5% vs 1.2%). […] Final results are expected for 2018 (Fig. 1)

[13] = system: adults with T2D using basal insulin; experiment: DELIVER2 real-world study, switch of basal insulin; type: in vivo, human; conditions: PS matched
Protocol: Methods: DELIVER2 used data from Predictive Health Intelligence Environment database of medical records representing 37 integrated delivery networks. […] The endpoints were A1C change from baseline, incidence and event rate of hypoglycemia (hypo) (identified by ICD-9/ICD-10 and/or plasma glucose level ≤ 70 mg/dL), and HCU (incidence and event rate of all-cause, diabetes-, and hypo-related visits) within 6 m.

[14] = system: participants with T1DM; experiment: Multiple-dosing crossover euglycemic glucose clamp study, steady-state PK/PD; type: in vivo, human
Excerpt: For both insulins, participants received 0.4 (n = 24) or 0.6 U/kg/day (n = 24) at ~ 8 am for 8 days. Main endpoint: within-day variability (fluctuation) of smoothed glucose infusion rate (GIR) over a 24-h dosing period (GIR-smFL0-24). […] This is an ENCORE abstract previously presented at ADA2017. Funding and editorial support provided by Sanofi (Fig. 1)

[15] = 0.625 mg/kg daily orally (PRD1)
[16] = 1.250 mg/kg daily orally (PRD2)

Compound: CC(C)(c1ccc(O)cc1)c1ccc(O)cc1 [BPA, Bisphenol-A]
- glycemia in GTT ([1]; 15 min, HFD 444 ± 13): 427 ± 17 mg/dL
- glycemia in GTT ([1]; 30 min, HFD 453 ± 23): 450 ± 22 mg/dL
- insulin secretion [2]: 1.8 ± 0.2 ng/islet h

Compound: CN(C)C(=N)N=C(N)N [D + PA + MTF, metformin]
- pregnant women with adverse perinatal outcomes / women in group [3]: 5/12

Compound: C[C@@H](O)[C@@H]1NC(=O)[C@H](CCCCN)NC(=O)[C@@H](Cc2c[nH]c3ccccc23)NC(=O)[C@H](Cc2ccccc2)NC(=O)[C@@H](NC(=O)[C@H](N)Cc2ccccc2)CSSC[C@@H](C(=O)N[C@H](CO)[C@@H](C)O)NC1=O [Octreotide]
- skin lesions (necrolytic migratory erythema) [4]: effective in reducing the number and extent of lesions

Compound: C[C@]12C=CC(=O)C=C1CC[C@@H]1[C@@H]2C(=O)C[C@@]2(C)[C@H]1CC[C@]2(O)C(=O)CO [prednisone]
- TOTG glycemia, time -1 min ([5]; 0.625 mg/kg (PRD1), day 17, CONT 87.7 ± 5.7): 106 ± 5.8 mg/dL
- TOTG glycemia, 120 min ([5]; 0.625 mg/kg (PRD1)): 122.8 ± 15.7 mg/dL
- fasting glycemic increase compared to CONT, day 8 [5, 15]: 30%
- fasting glycemic increase compared to CONT, day 16 [5, 15]: 20%
- glycemia increase of PRD1 compared to PRD4, day 16 ([5]; 0.625 mg/kg vs PRD4): 16%
- TOTG glycemia, 120 min ([5]; 1.250 mg/kg (PRD2)): 120.6 ± 11.6 mg/dL
- fasting glycemic increase compared to CONT, day 8 [5, 16]: 27%
- fasting glycemic increase compared to CONT, day 16 [5, 16]: 9%
- ASCp, increased glycemic load vs CONT, interval 30–60 min ([5]; PRD4): 36%
- independent risk factor for PTDM, OR [6]: 7.2
- calories ingested, 16th day of treatment ([7]; 5.0 mg/Kg daily (PRD2), n = 7): 93.2 ± 20.4 kcal/day
- calories ingested, day 0 ([7]; 5.0 mg/Kg daily (PRD2), n = 7): 63.7 ± 12.3 kcal/day
- calories ingested, day 8 of treatment ([7]; 5.0 mg/Kg daily (PRD2), n = 7): 69.0 ± 18.1 kcal/day
- body weight, dietary intake, serum triglyceride, total cholesterol, VLDL, LDL, non-HDL cholesterol ([7]; 2.5 and 5.0 mg/Kg, 21 days, p > 0.05): no differences
- glycemia increasing vs C group, all weeks of treatment ([8]; DM + PRD, 1.25 mg/kg/day): 51%
- lymphocytes, increase vs C group ([8]; DM + PRD, day 21): 19%
- neutrophils, increase vs C group ([8]; DM + PRD, day 21): 200%
- total leukocytes, increase vs C group ([8]; DM + PRD, day 21): 30%
- food intake increasing vs C group, 2nd and 3rd week ([8]; DM + PRD, oral 1.25 mg/kg/day): 18%
- high-density lipoprotein, decrease vs C group ([8]; DM + PRD, serum): 8%
- triglycerides, decrease vs C group ([8]; DM + PRD, serum): 21%
- very low-density lipoproteins, decrease vs C group ([8]; DM + PRD, serum): 10%
- OGTT glycemia, 30 min ([8]; DM + PRED group, 3rd week): 275 mg/dL
- OGTT glycemia, 60 min ([8]; DM + PRED group, 3rd week): 258 mg/dL
- OGTT glycemia, 120 min ([8]; DM + PRED group, 3rd week): 161 mg/dL
- body weight decrease, all measures ([8]; DM and DM + PRD groups): about 27%

Compound: COc1ccc(Cl)cc1C(=O)NCCc1ccc(S(=O)(=O)NC(=O)NC2CCCCC2)cc1 [sulfonylurea, glibenclamide]
- patients with positive response (C-peptide > 200 pmol/L) [9]: 66.7%

Compound: insulin glargine [Gla-300]
- achieved A1C < 7.0%, OR vs. other basal insulins ([10]; 95% CI 0.581, 1.098, P = 0.166): 0.798
- achieved A1C < 8.0%, OR vs. other basal insulins ([10]; 95% CI 0.749, 1.248, P = 0.797): 0.967
- A1C reduction over 24 weeks [11]: 1.00%
- mean (± SD) A1c before switching ([12]; n = 661): 8.21 ± 0.8%
- HbA1c, TOP-2 FAS 6 month [mean±SD] ([12]; six months after switching to Gla-300): 7.67 ± 1.0%
- A1C during 6 m follow-up [13]: 8.40%
- Mean baseline A1C ([13]; 1827 pts per group): 8.95%
- Within-day GIR variability (GIR-smFL0-24), lower vs. Deg-100 ([14]; 0.4 U/kg/day once daily ~8 am for 8 days, steady state, n = 24, p = 0.047): 20%
- Within-day GIR variability (GIR-smFL0-24) vs. Deg-100 ([14]; 0.6 U/kg/day, n = 24): comparable
